73 molecules from ChEMBL document CHEMBL3507680, “University of Dundee, Gates Library screen for HepG2 cell viability” can be followed below.

The data set is described as follows: Human HepG2 cell viability assay in 384 well format. It is filed as toxicity, cell-based. The arrangement: dose 125 nL, time 70.5 hour; cytotoxicity at 70.5 h: concentration not given beside the values. Particulars: HepG2 cells, read-out: Inhibition.

Turning to `CC(O)CN1CCN(Cc2coc(-c3cccc(Cl)c3)n2)CC1` (stereo not drawn), the cytotoxicity at 70.5 h was -1.14%. As to `OCCN1CCN(Cc2coc(-c3ccccc3Cl)n2)CC1`, the cytotoxicity at 70.5 h is -19.7%. On to `COC(=O)c1ccc(C(=O)NCc2ccco2)nc1`, for which the cytotoxicity at 70.5 h is -8.73%. Consider `Cc1cc(C(=O)N2CCNC(=O)C2)c(C)n1Cc1ccccn1`, for which the cytotoxicity at 70.5 h is -5.56%. With `NC(=O)C(NC1CCN(CC2CCCCC2)CC1)c1ccccc1` (stereo not drawn) the figure was -4.82%. Consider `CN(C)CCCNc1ncnc2cccc(F)c12`, for which the cytotoxicity at 70.5 h is 15.7%. Turning to `O=C(O)c1ncccc1OCC(F)(F)F`, the cytotoxicity at 70.5 h is -0.00705%.

As to `CCn1cc(C(=O)NCC(OC)c2cccc(Cl)c2)cn1` (stereo not drawn), the cytotoxicity at 70.5 h was -2.35%. Consider `CC(O)CN1CCN(C(=O)CCOC(C)C)CC1` (stereo not drawn), for which the cytotoxicity at 70.5 h was -3.79%.

As for `COc1ccc(CN(C)CCS(=O)(=O)c2ccc(Cl)cc2)cc1OC`, the cytotoxicity at 70.5 h was -12.9%. On to `COc1ccc(CCNC(=O)C(C)Nc2ccc(C)c(C)c2)cc1` (stereo not drawn), for which the cytotoxicity at 70.5 h came out at 21%. As to `COc1ccc(CCNC(=O)C(C)Nc2cccc(C)c2C)cc1` (stereo not drawn), the cytotoxicity at 70.5 h is -4.88%. As to `CCN1CCN(C(C)CNC(=O)Nc2nnc(C(C)C)s2)CC1` (stereo not drawn), the cytotoxicity at 70.5 h is -12.4%. As for `Cc1nc(CN2CCN(C(=O)c3ccc(=O)n(C)c3)CC2)cs1`, the figure is -2.46%; as for `CCCn1cc(NC(=O)c2ccc(N(C)CC)cc2)ccc1=O`, -7.67%; as for `COc1cccc(CN(C)c2ncc(C(N)=O)cc2Cl)c1`, -4.58%. With `CN(Cc1ccc(C#N)cc1)c1ncc(C(N)=O)cc1Cl` the figure was -7.36%; with `CCCn1cc(NC(=O)c2cccnc2O)ccc1=O`, -1.07%.

As to `COC(=O)c1sc2cccc(F)c2c1CNC(=O)C1CCCO1` (stereo not drawn), the cytotoxicity at 70.5 h came out at 6.87%.

On to `CC(C)(O)CN1CCN(C(=O)c2cccn2Cc2ccncc2)CC1`, for which the cytotoxicity at 70.5 h is -9.5%. With `Cn1cc(C(=O)N2CCN(Cc3cscn3)CC2)ccc1=O` the figure was 4.94%. For the molecule `Cc1csc(C2(NC(=O)CCc3ccncc3)CCCC2)n1`, the cytotoxicity at 70.5 h was -7.21%. With `Cc1cc(CN2CCN(C(=O)c3ccc(=O)n(C)c3)CC2)no1` the figure was -5.04%; with `CCn1ccnc1CN1CCCC1C(=O)Nc1nccs1` (stereo not drawn), -5.23%; with `Cc1cc(F)cc2c(N3CCC(S(N)(=O)=O)CC3)c(C#N)cnc12`, -4.86%. With `CC(=O)NC1CCN(c2c(C#N)cnc3c(C)cc(F)cc23)CC1`, the cytotoxicity at 70.5 h was found to be 0.242%. As for `CC(C)(C#N)c1ccccc1CN1CCC(N2CCCC2=O)CC1`, the cytotoxicity at 70.5 h amounted to 13.9%. `COc1cc2c(cc1CNC(=O)Cc1ccc(C)nc1)OC(C)C2` (stereo not drawn): the cytotoxicity at 70.5 h is -6.1%. On to `Cn1cc(C(=O)N2CCN(Cc3ccccn3)CC2)ccc1=O`, for which the cytotoxicity at 70.5 h was found to be 19.1%. Turning to `CN(C)c1ccccc1CN1CCCC(N2CCCC2=O)C1` (stereo not drawn), the cytotoxicity at 70.5 h was -8.7%. Regarding `Cc1cc(C)c2ncc(C#N)c(N3CCS(=O)(=O)CC3)c2c1`, the cytotoxicity at 70.5 h was -7.23%. As for `CCOCCC(=O)N1CCN(CC(C)O)CC1` (stereo not drawn), the cytotoxicity at 70.5 h stood at 16%.

Take `CC(=O)Nc1cccc(CN2CCCC2C(=O)Nc2nccs2)c1` (stereo not drawn): the cytotoxicity at 70.5 h is 17.5%. For the molecule `CN(C)C(C)(C)CNCc1c[nH]nc1-c1cc2ccccc2o1`, the cytotoxicity at 70.5 h came out at 10%.

As for `CCN(CC)CCn1cc(NC2CCN(C(C)(C)C)CC2)cn1`, the cytotoxicity at 70.5 h is 5.68%. With `CC(=O)N(C)Cc1cccc(NC(=O)CCCc2nc(C(C)C)no2)c1`, the cytotoxicity at 70.5 h was found to be 9.44%. Turning to `CCN(CC(=O)Nc1cc(Cl)ccc1C)C(=O)c1ccncc1`, the cytotoxicity at 70.5 h is -1.81%. As to `CCN(CC(=O)Nc1cc(Cl)ccc1C)C(=O)c1cnccn1`, the cytotoxicity at 70.5 h is 0.456%. For `CCCNC(=O)CNC(=O)c1scnc1C`, the cytotoxicity at 70.5 h turned out to be 3.25%. For the molecule `Cc1cc(C(=O)Nc2ccc3c(ccn3CCN3CCOCC3)c2)on1`, the cytotoxicity at 70.5 h is -5.31%. On to `Cc1nc(N2CCC(CN3CCCC3)CC2)c2cnn(C)c2n1`, for which the cytotoxicity at 70.5 h is -2.49%. For `Cn1ncc2c(N3CCC(CC(=O)N4CCCC4)CC3)ncnc21`, the cytotoxicity at 70.5 h was -4.03%.

For the molecule `CC1CCC(NC(=O)CNC2(c3ccc(Br)cc3)CCOCC2)CC1` (stereo not drawn), the cytotoxicity at 70.5 h was 4.23%. As to `CCN(CC(=O)N(C)C)C(=O)c1nc(C)n(-c2ccccc2Cl)n1`, the cytotoxicity at 70.5 h was -0.577%. With `CCC(C)C(=O)NCc1c(C)nn(C)c1N1CCCN(C)CC1` (stereo not drawn) the figure was 1.79%. For the molecule `COC(=O)COc1ccc(-c2noc(C3CCCO3)n2)cc1` (stereo not drawn), the cytotoxicity at 70.5 h is 24.5%. Take `O=C(NCCc1noc(-c2ccccn2)n1)NCC1CCCC1`: the cytotoxicity at 70.5 h is -4.99%. Take `CC(Nc1cccc2c1OCCO2)C(=O)Nc1ccc(S(N)(=O)=O)cc1` (stereo not drawn): the cytotoxicity at 70.5 h was determined as 25.1%. `CCc1ccc(NC(=O)C(C)Nc2cccc3c2OCCO3)cc1` (stereo not drawn): the cytotoxicity at 70.5 h stood at 2%. On to `CC(=O)N1CCN(C(=O)CN2CCCC2c2c(C)nn(C)c2C)CC1` (stereo not drawn), for which the cytotoxicity at 70.5 h was 7.11%. As for `Cn1cc(CC2CC(=O)N(Cc3ccc(OC(F)F)cc3)C2=O)cn1` (stereo not drawn), the figure is 3.06%; as for `Cc1nn(C)c(N2CCCN(C)CC2)c1CNC(=O)CCC(C)C`, -1.98%. Regarding `CCOCCC1(CNC(=O)c2ccncc2)CCC1`, the cytotoxicity at 70.5 h was -5.08%. `CCN(CC)CCn1cc(NC2CCSCC2)cn1`: the cytotoxicity at 70.5 h was -1.75%. With `CCc1nc(CN(C)CC(=O)N(C)C2CC2)cs1` the figure was -12.2%; with `Cc1n[nH]c(C2CN(C(=O)CCOCC(F)(F)F)CCO2)n1` (stereo not drawn), -10.1%; with `O=C(Cn1cccn1)Nc1ccc(N2CCCCC2)cc1`, 31.5%. `COCCS(=O)(=O)Cc1csc(NC(C)=O)n1`: the cytotoxicity at 70.5 h was -16%. `Cc1nn(CC(C)C)c(C)c1CC(=O)N1CCCC(NS(C)(=O)=O)C1` (stereo not drawn): the cytotoxicity at 70.5 h is -3.7%. As to `O=C(NCC(O)COc1ccc(C(F)(F)F)cc1)Nc1nncs1` (stereo not drawn), the cytotoxicity at 70.5 h is -12.1%. As for `CCOc1ccc(NCC(=O)NCC(=O)N2CCCC2)c(C(F)(F)F)c1`, the figure is -11.7%.

For the molecule `O=C(NCC1CCS(=O)(=O)C1)c1cccc(CN2CCCC2)c1` (stereo not drawn), the cytotoxicity at 70.5 h was -16%. In the case of `NC(=O)C1CCN(CCc2ccc(NCc3ccoc3)cc2)CC1`, the cytotoxicity at 70.5 h was -5.59%. As for `Cn1cc(CNc2ccc(CCN3CCC(C(N)=O)CC3)cc2)cn1`, the cytotoxicity at 70.5 h came out at 13.6%. Regarding `CC(NC1CCN(C(=O)C2CCCCC2)CC1)c1nccs1` (stereo not drawn), the cytotoxicity at 70.5 h is -6.15%. As for `C=C(C)CN(CC)S(=O)(=O)c1cccc(F)c1C#N`, the cytotoxicity at 70.5 h was -9.8%. Consider `COc1ccc(NC(C)c2ccc(C#N)cc2)cc1N1CCCC1=O` (stereo not drawn), for which the cytotoxicity at 70.5 h is 1.58%.

In the case of `CCN(C(C)c1cccc(O)c1)S(=O)(=O)c1cccnc1` (stereo not drawn), the cytotoxicity at 70.5 h came to 5.84%. For the molecule `COc1ccc(F)c(NCc2cnn(C3CCS(=O)(=O)C3)c2)c1` (stereo not drawn), the cytotoxicity at 70.5 h was 8.41%. With `Cc1ncc(CN(C)C(=O)Nc2cccc(N3CCNC3=O)c2)s1` the figure was -3.19%. Regarding `COc1ccc(CNC(=O)Nc2ccc(=O)n(C)c2)cc1`, the cytotoxicity at 70.5 h was -3.5%.

With `Cn1cc(NC(=O)NCc2ccsc2)ccc1=O`, the cytotoxicity at 70.5 h was -2.03%. Consider `CCOC(=O)c1cnn(C2CCN(C(=O)CC3C=CCC3)CC2)c1N` (stereo not drawn), for which the cytotoxicity at 70.5 h is -1.64%.
